Patent US7157620B2, “Enhanced transformation and regeneration of transformed embryogenic pine tissue” (Mead Westvaco Corporation, priority 2000, dated 2007)

Assays:
[1] = tested on: P. taeda embryogenic cell lines; test: Effect of ABA in preparation, recovery and selection media on transformants after Agrobacterium inoculation; assay type: cell-based, Pinus taeda
From the text: (§1) Seven loblolly pine cell lines or hybrid cell lines from seven widely diverse genetic backgrounds were used which had been grown, maintained, and transformed using Agrobacterium as described in Example 1 above except that the preparation medium, used for preparation and co-cultivation of the cells, either contained or lacked ABA. Following eradication using wash medium as described in Example 5 above, polyester support membranes bearing approximately 0.1 g of embryogenic tissue were divided onto recovery media either containing or lacking ABA. […] Concentrations of ABA used in all these media were 0, 10, and 30 mg/L.
(§2) Cells were maintained on the selection media, with transfer of the polyester support membranes to fresh selection media of the same composition, every two weeks for a total of eight weeks of selection. […] The cells were also checked for the presence of sequences by PCR amplification using primers specific for both the uidA and nptII transgenes, techniques well known to those skilled in the art of plant transformation.

[2] = tested on: P. rigida hybrid embryogenic cell line; test: as above; assay type: cell-based; settings: line H1
From the text: as §1, §2

Loblolly pine cell lines = test: ABA in selection media after biolistic transformation; assay type: cell-based, Pinus taeda
From the text: Loblolly pine cell lines were used which had been grown and maintained as described in Example 1 above, and prepared for biolistic transformation as described in Example 4 above. Following bombardment the support membranes bearing the bombarded embryogenic cells were transferred to DCR2 maintenance media for one week. Following this the support membranes bearing the bombarded embryogenic cells were divided among plates containing gelled DCR selection medium either with or without the addition of 10 mg/l abscisic acid (ABA), and cultured for three weeks. Cells selected on either type of selection medium during this first selection period on selection medium containing ABA were then divided among plates with and without ABA and cultured for a further three weeks. The same occurred in the next transfer, resulting in groups of cells that had been selected entirely in the absence of ABA, entirely in the presence of ABA, or in the presence of ABA for one of the three three-week selection periods.

CC1=CC(=O)CC(C)(C)[C@@]1(O)/C=C/C(C)=C\C(=O)O [ABA, abscisic acid]
effect of ABA in the preparation medium on the observation of transformants ([1]; 10 or 30 mg/L ABA): neutral or beneficial
necrotic foci in somatic embryogenic masses versus media without ABA ([1]; 10 or 30 mg/L ABA during and after co-cultivation, all lines): fewer necrotic foci
Average (n = 12) number of transformants observed per selection plate ([1]; line P1, ABA mg/l preparation/recovery/selection medium 0/0/10): 0.3
Average (n = 12) number of transformants observed per selection plate ([1]; line P1, ABA mg/l preparation/recovery/selection medium 0/0/30): 0.0
Average (n = 12) number of transformants observed per selection plate ([1]; line P1, ABA mg/l preparation/recovery/selection medium 0/10/10): 0.0
Average (n = 12) number of transformants observed per selection plate ([1]; line P1, ABA mg/l preparation/recovery/selection medium 0/10/30): 0.1
Average (n = 12) number of transformants observed per selection plate ([1]; line P1, ABA mg/l preparation/recovery/selection medium 0/30/30): 0.8
Average (n = 12) number of transformants observed per selection plate ([1]; line P1, ABA mg/l preparation/recovery/selection medium 10/10/10): 1.3
Average (n = 12) number of transformants observed per selection plate ([1]; line P1, ABA mg/l preparation/recovery/selection medium 30/10/10): 0.3
Average (n = 12) number of transformants observed per selection plate ([1]; line P1, ABA mg/l preparation/recovery/selection medium 30/30/30): 0.4
Average (n = 12) number of transformants observed per selection plate ([1]; line P2, ABA mg/l preparation/recovery/selection medium 0/0/10): 5.8
Average (n = 12) number of transformants observed per selection plate ([1]; line P2, ABA mg/l preparation/recovery/selection medium 0/0/30): 8.8
Average (n = 12) number of transformants observed per selection plate ([1]; line P2, ABA mg/l preparation/recovery/selection medium 0/10/10): 1.0
Average (n = 12) number of transformants observed per selection plate ([1]; line P2, ABA mg/l preparation/recovery/selection medium 0/10/30): 0.3
Average (n = 12) number of transformants observed per selection plate ([1]; line P2, ABA mg/l preparation/recovery/selection medium 0/30/30): 5.2
Average (n = 12) number of transformants observed per selection plate ([1]; line P2, ABA mg/l preparation/recovery/selection medium 10/10/10): 10.0
Average (n = 12) number of transformants observed per selection plate ([1]; line P2, ABA mg/l preparation/recovery/selection medium 30/10/10): 5.9
Average (n = 12) number of transformants observed per selection plate ([1]; line P2, ABA mg/l preparation/recovery/selection medium 30/30/30): 5.3
Average (n = 12) number of transformants observed per selection plate ([1]; line P3, ABA mg/l preparation/recovery/selection medium 0/0/10): 21.7
Average (n = 12) number of transformants observed per selection plate ([1]; line P3, ABA mg/l preparation/recovery/selection medium 0/0/30): 22.3
Average (n = 12) number of transformants observed per selection plate ([1]; line P3, ABA mg/l preparation/recovery/selection medium 0/10/10): 23.3
Average (n = 12) number of transformants observed per selection plate ([1]; line P3, ABA mg/l preparation/recovery/selection medium 0/10/30): 26.0
Average (n = 12) number of transformants observed per selection plate ([1]; line P3, ABA mg/l preparation/recovery/selection medium 0/30/30): 18.6
Average (n = 12) number of transformants observed per selection plate ([1]; line P3, ABA mg/l preparation/recovery/selection medium 10/10/10): 22.6
Average (n = 12) number of transformants observed per selection plate ([1]; line P3, ABA mg/l preparation/recovery/selection medium 30/10/10): 21.6
Average (n = 12) number of transformants observed per selection plate ([1]; line P3, ABA mg/l preparation/recovery/selection medium 30/30/30): 21.1
Average (n = 12) number of transformants observed per selection plate ([1]; line P4, ABA mg/l preparation/recovery/selection medium 0/0/10): 27.5
Average (n = 12) number of transformants observed per selection plate ([1]; line P4, ABA mg/l preparation/recovery/selection medium 0/0/30): 34.9
Average (n = 12) number of transformants observed per selection plate ([1]; line P4, ABA mg/l preparation/recovery/selection medium 0/10/10): 28.8
Average (n = 12) number of transformants observed per selection plate ([1]; line P4, ABA mg/l preparation/recovery/selection medium 0/10/30): 30.9
Average (n = 12) number of transformants observed per selection plate ([1]; line P4, ABA mg/l preparation/recovery/selection medium 0/30/30): 28.6
Average (n = 12) number of transformants observed per selection plate ([1]; line P4, ABA mg/l preparation/recovery/selection medium 10/10/10): 27.8
Average (n = 12) number of transformants observed per selection plate ([1]; line P4, ABA mg/l preparation/recovery/selection medium 30/10/10): 22.7
Average (n = 12) number of transformants observed per selection plate ([1]; line P4, ABA mg/l preparation/recovery/selection medium 30/30/30): 27.3
Average (n = 12) number of transformants observed per selection plate ([1]; line P5, ABA mg/l preparation/recovery/selection medium 0/0/10): 18.1
Average (n = 12) number of transformants observed per selection plate ([1]; line P5, ABA mg/l preparation/recovery/selection medium 0/0/30): 5.5
Average (n = 12) number of transformants observed per selection plate ([1]; line P5, ABA mg/l preparation/recovery/selection medium 0/10/10): 2.4
Average (n = 12) number of transformants observed per selection plate ([1]; line P5, ABA mg/l preparation/recovery/selection medium 0/10/30): 7.2
Average (n = 12) number of transformants observed per selection plate ([1]; line P5, ABA mg/l preparation/recovery/selection medium 0/30/30): 3.3
Average (n = 12) number of transformants observed per selection plate ([1]; line P5, ABA mg/l preparation/recovery/selection medium 10/10/10): 10.3
Average (n = 12) number of transformants observed per selection plate ([1]; line P5, ABA mg/l preparation/recovery/selection medium 30/10/10): 11.3
Average (n = 12) number of transformants observed per selection plate ([1]; line P5, ABA mg/l preparation/recovery/selection medium 30/30/30): 14.3
Average (n = 12) number of transformants observed per selection plate ([1]; line P6, ABA mg/l preparation/recovery/selection medium 0/0/10): 3.9
Average (n = 12) number of transformants observed per selection plate ([1]; line P6, ABA mg/l preparation/recovery/selection medium 0/0/30): 3.3
Average (n = 12) number of transformants observed per selection plate ([1]; line P6, ABA mg/l preparation/recovery/selection medium 0/10/10): 3.2
Average (n = 12) number of transformants observed per selection plate ([1]; line P6, ABA mg/l preparation/recovery/selection medium 0/10/30): 3.2
Average (n = 12) number of transformants observed per selection plate ([1]; line P6, ABA mg/l preparation/recovery/selection medium 0/30/30): 2.3
Average (n = 12) number of transformants observed per selection plate ([1]; line P6, ABA mg/l preparation/recovery/selection medium 10/10/10): 4.5
Average (n = 12) number of transformants observed per selection plate ([1]; line P6, ABA mg/l preparation/recovery/selection medium 30/10/10): 3.1
Average (n = 12) number of transformants observed per selection plate ([1]; line P6, ABA mg/l preparation/recovery/selection medium 30/30/30): 2.3
Average (n = 12) number of transformants observed per selection plate ([2]; ABA mg/l preparation/recovery/selection medium 0/0/10): 27.0
Average (n = 12) number of transformants observed per selection plate ([2]; ABA mg/l preparation/recovery/selection medium 0/0/30): 21.1
Average (n = 12) number of transformants observed per selection plate ([2]; ABA mg/l preparation/recovery/selection medium 0/10/10): 19.0
Average (n = 12) number of transformants observed per selection plate ([2]; ABA mg/l preparation/recovery/selection medium 0/10/30): 21.6
Average (n = 12) number of transformants observed per selection plate ([2]; ABA mg/l preparation/recovery/selection medium 0/30/30): 15.1
Average (n = 12) number of transformants observed per selection plate ([2]; ABA mg/l preparation/recovery/selection medium 10/10/10): 21.9
Average (n = 12) number of transformants observed per selection plate ([2]; ABA mg/l preparation/recovery/selection medium 30/10/10): 22.9
Average (n = 12) number of transformants observed per selection plate ([2]; ABA mg/l preparation/recovery/selection medium 30/30/30): 21.8
transformants from a cell line of progeny of the P. taeda elite line 7–56 (Loblolly pine cell lines; 10 mg/L ABA in selection medium): observed only on treatments that had contained ABA in the selection medium
number of transformants obtained when ABA was present during the entire selection period (Loblolly pine cell lines; 10 mg/l ABA in DCR selection medium, nine weeks, all lines tested): equal to or greater than the number obtained for any other treatment
